Measured values published in ChEMBL document CHEMBL1121827, “Showdomycin analogues: synthesis and antitumor evaluation” (J Med Chem, 1981).

Experiments:
[1] = In vivo antitumor activity expressed as lethal dose with daily administration schedule against P388 murine leukemia cells; type: ADME, organism-based; settings: mouse
[2] = test system: L1210; assay: Cytotoxicity inhibition against cultured L1210 cells at 200 uM; type: functional; settings: Mus musculus
[3] = test system: L1210; assay: Cytotoxicity inhibition against cultured L1210 cells at 400 uM; type: functional; settings: Mus musculus

SMILES	LD50 [1] [mg/kg]	inhibition at 200 µM [2] [%]	inhibition at 400 µM [3] [%]
CC(=O)OC[C@H]1O[C@@H](N2C(=O)C=CC2=O)[C@H](OC(C)=O)[C@@H]1OC(C)=O	10	–	–
O=C1C=CC(=O)N1C1O[C@H](CO)[C@@H](O)[C@H]1O (stereo partly specified)	35	–	–
O=C1C=C(Cl)C(=O)N1C1O[C@H](CO)[C@@H](O)[C@H]1O (stereo partly specified)	18	–	–
CC1=CC(=O)N(C2O[C@H](CO)[C@@H](O)[C@H]2O)C1=O (stereo partly specified)	100	95	85
